From patent US20160108381A1, “DNA POLYMERASES AND MUTANTS THEREOF” (LIFE TECHNOLOGIES CORPORATION, priority 2001, published 2016)

Assays:
[1] = biological target: T1, Caldicellulosiruptor sp. strain Rt69B.1 (RT69B) DNA polymerase, SEQ ID NO:19 (Caldicellulosiruptor saccharolyticus, UniProt Q6X9R7); assay: Steady-state kinetics, DNA- and RNA-dependent polymerase activity; format: biochemical; settings: Table 40; dTTP; 72 °C
T1 sequence (Q6X9R7 with tags, fused parts or gaps): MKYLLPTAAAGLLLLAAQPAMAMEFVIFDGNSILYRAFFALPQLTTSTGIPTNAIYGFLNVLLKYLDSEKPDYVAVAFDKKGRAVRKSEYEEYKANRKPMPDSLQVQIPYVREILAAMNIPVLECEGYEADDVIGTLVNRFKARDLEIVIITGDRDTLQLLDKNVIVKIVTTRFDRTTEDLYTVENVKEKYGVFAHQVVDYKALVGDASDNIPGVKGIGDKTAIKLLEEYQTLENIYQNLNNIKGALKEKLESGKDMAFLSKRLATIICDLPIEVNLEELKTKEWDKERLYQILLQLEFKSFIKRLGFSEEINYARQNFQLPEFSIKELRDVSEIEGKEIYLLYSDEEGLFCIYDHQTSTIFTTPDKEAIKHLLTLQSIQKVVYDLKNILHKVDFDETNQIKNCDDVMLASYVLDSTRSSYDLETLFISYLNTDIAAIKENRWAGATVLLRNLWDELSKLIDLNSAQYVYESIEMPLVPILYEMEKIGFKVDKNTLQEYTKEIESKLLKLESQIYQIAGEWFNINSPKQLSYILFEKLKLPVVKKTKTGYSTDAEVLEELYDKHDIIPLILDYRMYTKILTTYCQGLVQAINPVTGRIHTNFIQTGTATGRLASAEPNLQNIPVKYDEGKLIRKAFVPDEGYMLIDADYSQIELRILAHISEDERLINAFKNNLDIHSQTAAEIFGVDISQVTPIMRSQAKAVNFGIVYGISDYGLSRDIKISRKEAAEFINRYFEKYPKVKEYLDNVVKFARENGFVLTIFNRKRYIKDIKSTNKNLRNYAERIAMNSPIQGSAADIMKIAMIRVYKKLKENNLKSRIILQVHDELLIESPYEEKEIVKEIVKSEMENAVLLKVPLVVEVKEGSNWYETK
Protocol: (§1) Subcloning of genes for Tok13B, Tok7B, and Rt69B. Subcloning of the genes for Tok13B, Tok7B, and Rt69B DNA polymerase was carried out to remove the pelB leader sequence derived from pET26B. This reduced proteolytic degradation of the DNA polymerases from these genes observed in E. coli when the pelB leader was present. Each DNA polymerase gene was removed from pET26B by restriction digestion of the plasmid DNA with NcoI, which cut at the 5′ end of the gene, and BamHI, which cut downstream of the translation stop codon at the 3′ end of the gene. The NcoI-BamHI fragment was ligated into the NcoI and BamHI sites of expression vector pET14B (Novagen Inc., Madison, Wis.). The recombinant plasmids were transformed into the E. coli expression host BL21-AI (Invitrogen Corporation, Carlsbad, Calif.).
(§2) Purification of CA2, B.EA1, Rt41A, Dth, Tok13B, Tok7B, and Rt69B DNA polymerase. E. coli cells (BL21SI, Invitrogen Corporation, Carlsbad, Calif.) bearing the plasmid pET26B with the gene for CA2, B.EA1, Rt41A, or Dth DNA polymerase were grown in 2.8-1 Fembach flasks in LB broth containing no salt and 50 μg/ml kanamycin at 37° C. After the culture reached an A590 of 1.2, expression of DNA polymerase was induced with 0.3 M NaCl for 3 hr. Cells were harvested by centrifugation and stored at −70° C. […]

[2] = biological target: T2, Caldicellulosiruptor sp. strain Tok13B.1 (Tok13B) DNA polymerase, SEQ ID NO:17 (Caldicellulosiruptor saccharolyticus, UniProt Q6X9R9); assay: as above; format: biochemical; settings: Table 40; dTTP; 72 °C
T2 sequence (Q6X9R9 with tags, fused parts or gaps): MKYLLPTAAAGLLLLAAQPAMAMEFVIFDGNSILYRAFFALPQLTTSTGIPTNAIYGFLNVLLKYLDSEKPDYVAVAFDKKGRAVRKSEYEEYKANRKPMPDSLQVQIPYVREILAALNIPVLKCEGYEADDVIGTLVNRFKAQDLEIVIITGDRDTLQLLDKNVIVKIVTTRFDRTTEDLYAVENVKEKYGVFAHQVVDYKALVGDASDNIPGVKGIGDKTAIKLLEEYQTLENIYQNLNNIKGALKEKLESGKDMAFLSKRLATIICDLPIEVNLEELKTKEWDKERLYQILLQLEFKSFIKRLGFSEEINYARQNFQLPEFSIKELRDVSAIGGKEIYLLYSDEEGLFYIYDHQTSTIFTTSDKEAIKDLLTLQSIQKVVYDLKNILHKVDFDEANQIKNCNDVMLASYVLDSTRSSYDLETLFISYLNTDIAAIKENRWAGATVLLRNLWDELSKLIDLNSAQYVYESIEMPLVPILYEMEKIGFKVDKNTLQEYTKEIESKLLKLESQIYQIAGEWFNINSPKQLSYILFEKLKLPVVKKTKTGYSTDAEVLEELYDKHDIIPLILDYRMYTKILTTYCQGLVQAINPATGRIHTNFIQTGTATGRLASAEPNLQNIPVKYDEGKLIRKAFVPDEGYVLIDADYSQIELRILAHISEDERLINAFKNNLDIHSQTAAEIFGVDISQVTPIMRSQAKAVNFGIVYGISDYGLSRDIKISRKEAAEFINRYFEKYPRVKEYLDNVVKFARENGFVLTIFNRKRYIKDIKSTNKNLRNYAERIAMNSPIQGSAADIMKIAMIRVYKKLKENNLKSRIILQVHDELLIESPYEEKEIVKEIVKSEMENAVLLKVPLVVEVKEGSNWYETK
Protocol: as §1, §2

Cc1cn([C@H]2C[C@H](O)[C@@H](COP(=O)(O)OP(=O)(O)OP(=O)(O)O)O2)c(=O)[nH]c1=O [dTTP]
kCAT Ratio (RNA/DNA) [1]: 0.03 | kCAT Ratio (RNA/DNA) [2]: 0.03
